This test addresses T1, STAT5a (Homo sapiens, UniProt P42229).
T1 sequence (P42229 1-794): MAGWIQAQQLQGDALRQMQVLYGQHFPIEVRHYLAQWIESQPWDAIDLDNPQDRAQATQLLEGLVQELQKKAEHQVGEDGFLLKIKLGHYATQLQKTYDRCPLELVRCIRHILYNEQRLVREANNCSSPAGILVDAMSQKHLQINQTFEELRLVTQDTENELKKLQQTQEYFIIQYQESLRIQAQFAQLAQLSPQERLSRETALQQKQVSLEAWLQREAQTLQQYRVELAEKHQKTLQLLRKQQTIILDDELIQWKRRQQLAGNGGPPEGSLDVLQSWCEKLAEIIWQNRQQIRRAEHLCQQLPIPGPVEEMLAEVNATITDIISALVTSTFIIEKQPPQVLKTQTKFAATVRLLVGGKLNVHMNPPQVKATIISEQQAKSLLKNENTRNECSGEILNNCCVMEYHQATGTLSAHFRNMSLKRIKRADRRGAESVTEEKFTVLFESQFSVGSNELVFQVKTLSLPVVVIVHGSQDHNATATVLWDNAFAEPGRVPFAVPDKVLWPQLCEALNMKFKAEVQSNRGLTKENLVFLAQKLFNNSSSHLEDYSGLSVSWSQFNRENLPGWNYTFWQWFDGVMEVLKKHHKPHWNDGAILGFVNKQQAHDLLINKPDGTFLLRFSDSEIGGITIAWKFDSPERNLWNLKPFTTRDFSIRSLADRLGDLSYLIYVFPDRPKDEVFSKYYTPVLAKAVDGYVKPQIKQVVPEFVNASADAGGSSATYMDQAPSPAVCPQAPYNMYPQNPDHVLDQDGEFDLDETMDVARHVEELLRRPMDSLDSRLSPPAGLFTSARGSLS
The test can be described thus: HTRF assay, STAT5a. In kind it is binding. Particulars: STAT5a 110 nM, without reducing agent, 1 h. An excerpt:
The azo dyes PPADS and iso‐PPADS have a deep red color in aqueous solution. […] In order to exclude this possibility, we established homogeneous time‐resolved fluorescence resonance energy transfer (HTRF) assays to confirm the degree of binding between STAT4, STAT5a, and STAT5b and the respective 5‐carboxyfluorescein‐labeled binding peptides used in the FP assay. In addition, an HTRF assay was established for STAT3, one of the STAT proteins targeted to a lesser extent in FP assays, as a specificity control (Figure 1B,C). The STAT protein constructs each contain a 6x‐His‐tag.^[ [15], [16], [17], [22] ^] A Tb^3+‐cryptate fused to an anti‐6x‐His antibody was chosen as the long‐lived fluorescent donor, while the carboxyfluorescein linked to the respective STAT‐binding peptides served as the acceptor (Figure 2A). Emission was measured with a time delay of 60 μs after excitation, allowing any initial compound fluorescence to decay beforehand. […]
Screening of chemical libraries comprising approximately 5000 known bioactive compounds in fluorescence polarization-based assays against phosphorylation-dependent protein-protein interaction domains, including STAT proteins, has been described.[1] […]
Fluorescence polarization assays
Competitive fluorescence polarization (FP) assays for STAT1,[2] […] Briefly, peptide binding to proteins was analyzed using the following carboxyfluorescein (CF) -labelled pepti des at a concentration of 10 nM: STAT1: 5-CF-GpYDKPHVL-OH, STAT3: 5-CF-GpYLPQTV -NH2, STAT4: 5-CF-GpYLPQNID-OH, STAT5a and STAT5b: 5-CF-GpYLVLDKW-OH, STAT6: 5- […]
CFGp[…]-OH. […] FP was measured using an Infinite F500 plate reader (Tecan) and measurements were converted into percent inhibition according to the binding curve equation. Curves were plotted and best fits calculated using OriginPro […]
Homogenous time-resolved fluorescence (HTRF) assays for STAT3, STAT4, STAT5a and STAT5b were carried out using Cisbio Monoclonal Antibody Anti-6His-Tb Gold as the fluorescence donor (Perkin Elmer) and the corresponding CF-labelled binding peptide as the acceptor. […] The average reading from 3 wells was obtained. […]

The structures appear in SMILES notation.

For the compound `Cc1nc(/N=N/c2ccc(S(=O)(=O)O)cc2S(=O)(=O)O)c(COP(=O)(O)O)c(C=O)c1O` [PPADS, pyridoxalphosphate‐6‐azophenyl‐2',4'‐disulfonic acid], the IC50 turned out to be 1.41 ± 0.35 µM. With `Cc1nc(/N=N/c2cc(S(=O)(=O)O)ccc2S(=O)(=O)O)c(COP(=O)(O)O)c(C=O)c1O` [iso‐PPADS], the IC50 worked out at 8.2 ± 0.7 µM. Against the preceding compound, the IC50 is about 5.8-fold higher.

The record behind these values is PMC12442245, “Activity Analysis of the P2X Receptor Antagonist PPADS against Signal Transducer and Activator of Transcription Proteins” (Chembiochem, 2025).
